Measured values: US10870647B2, “Imidazopyridine derivative, method for preparing same, and pharmaceutical composition containing same as active ingredient for preventing or treating cancer” (DAEGU-GYEONGBUK MEDICAL INNOVATION FOUNDATION, priority 2016, dated 2020)

Legend:
Test in all cases: Kinase selectivity, scanMAX Kinase assay panel (DiscoverX), % control at 1 uM
Format in all cases: binding
[1] = target: T1, scanMAX Kinase assay panel (Homo sapiens, UniProt O00141); settings: SGK; 1 uM; read-out: Percent Control (%)
T1 construct: purchased DiscoverX
T1 sequence (O00141 1-431): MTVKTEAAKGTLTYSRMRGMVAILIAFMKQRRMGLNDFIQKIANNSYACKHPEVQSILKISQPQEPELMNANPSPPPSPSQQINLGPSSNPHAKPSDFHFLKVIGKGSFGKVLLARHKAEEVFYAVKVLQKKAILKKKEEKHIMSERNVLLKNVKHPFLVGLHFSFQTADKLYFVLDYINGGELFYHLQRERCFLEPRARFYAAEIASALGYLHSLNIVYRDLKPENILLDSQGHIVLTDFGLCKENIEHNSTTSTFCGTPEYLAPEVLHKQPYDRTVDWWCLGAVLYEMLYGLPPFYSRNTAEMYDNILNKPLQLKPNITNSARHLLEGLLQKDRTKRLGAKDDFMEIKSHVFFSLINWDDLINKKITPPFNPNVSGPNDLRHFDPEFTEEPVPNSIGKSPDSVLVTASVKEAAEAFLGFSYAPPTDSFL
Method in brief: (§1)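 Activity was called for kinases showing % control under 35, calculated from compound signal relative to positive and negative controls. Each compound screened at 1 uM against the DiscoverX scanMAX panel.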

[2] = target: T2, scanMAX Kinase assay panel (Homo sapiens, UniProt Q15303); settings: ERBB4; 1 uM; read-out: Percent Control (%)
T2 construct: purchased DiscoverX
Method in brief: as §1

[3] = target: T3, scanMAX Kinase assay panel (Homo sapiens, UniProt Q13555); settings: CAMK2G; 1 uM; read-out: Percent Control (%)
T3 construct: purchased DiscoverX
Method in brief: as §1

[4] = target: T4, scanMAX Kinase assay panel (Homo sapiens, UniProt Q99755); settings: PIP5K1A; 1 uM; read-out: Percent Control (%)
T4 construct: purchased DiscoverX
Method in brief: as §1

[5] = target: T5, scanMAX Kinase assay panel (Homo sapiens, UniProt Q13546); settings: RIPK1; 1 uM; read-out: Percent Control (%)
T5 construct: purchased DiscoverX
T5 sequence (Q13546 1-671): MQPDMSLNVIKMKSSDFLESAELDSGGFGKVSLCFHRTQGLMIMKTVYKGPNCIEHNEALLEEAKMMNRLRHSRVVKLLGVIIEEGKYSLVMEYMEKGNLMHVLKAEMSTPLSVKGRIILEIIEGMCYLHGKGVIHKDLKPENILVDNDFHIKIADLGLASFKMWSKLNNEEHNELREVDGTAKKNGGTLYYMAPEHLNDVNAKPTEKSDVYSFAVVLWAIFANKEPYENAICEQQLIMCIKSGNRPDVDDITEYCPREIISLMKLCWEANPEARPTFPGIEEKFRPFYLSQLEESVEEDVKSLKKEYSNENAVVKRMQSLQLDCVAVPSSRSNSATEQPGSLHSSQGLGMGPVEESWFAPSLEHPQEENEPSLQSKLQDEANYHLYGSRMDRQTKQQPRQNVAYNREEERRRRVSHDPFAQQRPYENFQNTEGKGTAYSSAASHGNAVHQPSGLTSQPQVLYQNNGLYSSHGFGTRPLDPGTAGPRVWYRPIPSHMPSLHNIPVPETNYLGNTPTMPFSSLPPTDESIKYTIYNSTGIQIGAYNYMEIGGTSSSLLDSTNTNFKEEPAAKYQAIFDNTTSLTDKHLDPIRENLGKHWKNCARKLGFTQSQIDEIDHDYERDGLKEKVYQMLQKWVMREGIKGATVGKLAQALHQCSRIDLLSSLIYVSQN
Method in brief: as §1

[6] = target: T6, scanMAX Kinase assay panel (Homo sapiens, UniProt Q08345); settings: DDR1; 1 uM; read-out: Percent Control (%)
T6 construct: purchased DiscoverX
Method in brief: as §1

[7] = target: T7, scanMAX Kinase assay panel (Homo sapiens, UniProt P30530); settings: AXL; 1 uM; read-out: Percent Control (%)
T7 construct: purchased DiscoverX
T7 sequence (P30530 26-894): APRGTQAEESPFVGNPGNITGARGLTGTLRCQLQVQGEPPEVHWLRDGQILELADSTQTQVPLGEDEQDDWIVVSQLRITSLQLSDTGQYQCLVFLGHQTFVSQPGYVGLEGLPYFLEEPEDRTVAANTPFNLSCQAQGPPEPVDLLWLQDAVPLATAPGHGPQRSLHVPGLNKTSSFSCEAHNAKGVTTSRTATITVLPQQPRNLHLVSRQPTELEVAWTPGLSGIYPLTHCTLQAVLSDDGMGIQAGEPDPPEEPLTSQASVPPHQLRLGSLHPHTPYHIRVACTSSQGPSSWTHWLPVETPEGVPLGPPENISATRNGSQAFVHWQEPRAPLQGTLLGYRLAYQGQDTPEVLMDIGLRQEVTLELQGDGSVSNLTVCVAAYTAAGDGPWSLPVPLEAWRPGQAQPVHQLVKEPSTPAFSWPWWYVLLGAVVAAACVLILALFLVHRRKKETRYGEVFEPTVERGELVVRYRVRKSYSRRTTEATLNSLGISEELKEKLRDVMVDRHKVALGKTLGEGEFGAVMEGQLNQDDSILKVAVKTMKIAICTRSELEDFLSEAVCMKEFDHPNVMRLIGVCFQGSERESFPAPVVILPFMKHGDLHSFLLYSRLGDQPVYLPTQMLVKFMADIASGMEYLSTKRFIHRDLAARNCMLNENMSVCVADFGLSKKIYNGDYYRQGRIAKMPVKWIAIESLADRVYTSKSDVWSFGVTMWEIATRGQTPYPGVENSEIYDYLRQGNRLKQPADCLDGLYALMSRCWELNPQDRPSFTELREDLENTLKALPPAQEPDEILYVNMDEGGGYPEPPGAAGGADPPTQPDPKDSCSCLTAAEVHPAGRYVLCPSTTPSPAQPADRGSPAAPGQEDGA
Method in brief: as §1

T4 sequence (Q99755 whole entry): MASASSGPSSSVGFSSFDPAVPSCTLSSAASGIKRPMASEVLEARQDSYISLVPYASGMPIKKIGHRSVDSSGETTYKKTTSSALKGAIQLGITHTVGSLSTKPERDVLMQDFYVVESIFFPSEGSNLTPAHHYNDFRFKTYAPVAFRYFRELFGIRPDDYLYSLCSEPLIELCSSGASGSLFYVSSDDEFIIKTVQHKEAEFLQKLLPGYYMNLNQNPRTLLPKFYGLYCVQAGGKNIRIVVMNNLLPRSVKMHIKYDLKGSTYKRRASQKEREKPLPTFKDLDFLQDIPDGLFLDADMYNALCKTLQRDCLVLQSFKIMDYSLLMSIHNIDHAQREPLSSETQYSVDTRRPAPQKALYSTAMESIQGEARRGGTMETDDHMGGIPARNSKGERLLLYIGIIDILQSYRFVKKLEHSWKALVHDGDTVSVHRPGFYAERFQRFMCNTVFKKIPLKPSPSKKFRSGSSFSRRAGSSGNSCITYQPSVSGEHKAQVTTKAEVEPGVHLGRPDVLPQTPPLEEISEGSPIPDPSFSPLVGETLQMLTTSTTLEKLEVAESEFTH
T3 sequence (Q13555 whole entry): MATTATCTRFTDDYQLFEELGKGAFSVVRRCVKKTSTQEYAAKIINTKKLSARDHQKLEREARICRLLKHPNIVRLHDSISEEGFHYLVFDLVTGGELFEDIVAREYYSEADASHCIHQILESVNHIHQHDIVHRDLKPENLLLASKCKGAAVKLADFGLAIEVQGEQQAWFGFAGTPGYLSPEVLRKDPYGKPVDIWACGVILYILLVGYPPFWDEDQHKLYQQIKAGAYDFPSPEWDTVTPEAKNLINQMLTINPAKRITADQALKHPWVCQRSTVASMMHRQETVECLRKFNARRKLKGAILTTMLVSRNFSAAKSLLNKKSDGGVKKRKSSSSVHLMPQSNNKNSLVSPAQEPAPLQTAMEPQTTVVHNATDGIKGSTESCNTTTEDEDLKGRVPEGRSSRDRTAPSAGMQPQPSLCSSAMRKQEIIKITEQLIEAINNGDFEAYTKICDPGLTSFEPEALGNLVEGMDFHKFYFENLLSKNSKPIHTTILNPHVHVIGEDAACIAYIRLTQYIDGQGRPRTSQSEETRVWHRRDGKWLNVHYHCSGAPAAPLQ
T2 sequence (Q15303 26-1308): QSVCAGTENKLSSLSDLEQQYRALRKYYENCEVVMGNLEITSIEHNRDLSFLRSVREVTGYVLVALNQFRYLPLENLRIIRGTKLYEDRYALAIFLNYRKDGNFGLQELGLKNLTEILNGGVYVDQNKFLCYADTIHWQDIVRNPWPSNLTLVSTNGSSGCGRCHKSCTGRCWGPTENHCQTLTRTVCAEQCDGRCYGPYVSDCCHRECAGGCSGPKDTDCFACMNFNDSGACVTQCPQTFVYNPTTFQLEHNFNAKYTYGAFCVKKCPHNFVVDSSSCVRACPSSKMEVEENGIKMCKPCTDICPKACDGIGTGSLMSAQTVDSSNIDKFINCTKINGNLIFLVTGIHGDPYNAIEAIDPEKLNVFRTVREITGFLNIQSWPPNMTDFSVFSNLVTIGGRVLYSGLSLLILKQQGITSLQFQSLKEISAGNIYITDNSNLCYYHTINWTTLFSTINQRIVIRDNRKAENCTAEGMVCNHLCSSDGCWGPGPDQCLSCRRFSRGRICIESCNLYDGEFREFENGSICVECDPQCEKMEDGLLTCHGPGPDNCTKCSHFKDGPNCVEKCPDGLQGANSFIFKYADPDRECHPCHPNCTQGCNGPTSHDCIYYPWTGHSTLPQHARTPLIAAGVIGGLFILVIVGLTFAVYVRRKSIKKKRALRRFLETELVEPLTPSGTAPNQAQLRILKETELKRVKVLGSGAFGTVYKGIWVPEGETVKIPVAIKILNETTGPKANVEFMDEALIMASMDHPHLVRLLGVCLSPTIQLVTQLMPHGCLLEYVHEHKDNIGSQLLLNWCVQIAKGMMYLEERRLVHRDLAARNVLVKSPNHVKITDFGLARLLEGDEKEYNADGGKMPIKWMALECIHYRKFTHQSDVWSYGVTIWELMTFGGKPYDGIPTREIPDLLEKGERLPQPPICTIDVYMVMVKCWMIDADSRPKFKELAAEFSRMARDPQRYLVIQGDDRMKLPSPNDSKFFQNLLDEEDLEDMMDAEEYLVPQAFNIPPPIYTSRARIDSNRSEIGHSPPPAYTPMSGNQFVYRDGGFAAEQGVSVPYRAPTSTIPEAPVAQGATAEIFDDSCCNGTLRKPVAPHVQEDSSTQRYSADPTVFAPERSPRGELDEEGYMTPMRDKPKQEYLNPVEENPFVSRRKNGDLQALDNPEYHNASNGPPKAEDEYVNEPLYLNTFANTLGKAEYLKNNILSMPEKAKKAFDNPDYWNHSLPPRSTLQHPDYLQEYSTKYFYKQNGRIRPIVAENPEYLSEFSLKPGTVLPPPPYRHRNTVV
T6 sequence (Q08345 19-913): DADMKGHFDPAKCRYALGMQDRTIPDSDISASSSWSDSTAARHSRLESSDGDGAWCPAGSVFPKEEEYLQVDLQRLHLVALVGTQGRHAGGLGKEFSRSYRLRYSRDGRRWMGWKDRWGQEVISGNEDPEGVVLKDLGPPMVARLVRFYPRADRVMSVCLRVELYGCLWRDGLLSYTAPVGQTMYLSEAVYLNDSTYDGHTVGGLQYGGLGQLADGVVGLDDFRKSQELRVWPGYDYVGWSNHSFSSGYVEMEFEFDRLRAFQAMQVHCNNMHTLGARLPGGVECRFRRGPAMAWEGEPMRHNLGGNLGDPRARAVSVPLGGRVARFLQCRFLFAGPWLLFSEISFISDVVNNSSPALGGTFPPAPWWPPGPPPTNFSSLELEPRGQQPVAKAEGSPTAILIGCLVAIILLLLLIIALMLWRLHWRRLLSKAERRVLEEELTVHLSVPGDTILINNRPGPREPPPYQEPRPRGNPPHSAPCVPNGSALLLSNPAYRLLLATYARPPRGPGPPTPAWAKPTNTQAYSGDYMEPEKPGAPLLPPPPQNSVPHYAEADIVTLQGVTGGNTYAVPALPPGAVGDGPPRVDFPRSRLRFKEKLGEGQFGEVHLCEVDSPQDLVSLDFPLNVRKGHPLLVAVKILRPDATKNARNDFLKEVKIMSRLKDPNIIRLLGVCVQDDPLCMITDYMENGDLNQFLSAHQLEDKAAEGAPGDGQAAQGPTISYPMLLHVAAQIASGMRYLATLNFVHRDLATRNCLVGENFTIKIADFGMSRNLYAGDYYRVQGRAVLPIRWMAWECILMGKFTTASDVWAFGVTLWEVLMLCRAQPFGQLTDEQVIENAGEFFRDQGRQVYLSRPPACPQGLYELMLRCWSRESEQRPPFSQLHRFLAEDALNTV

Structure (SMILES) | remaining binding at 1 µM [1] [%] | remaining binding at 1 µM [2] [%] | remaining binding at 1 µM [3] [%] | remaining binding at 1 µM [4] [%] | remaining binding at 1 µM [5] [%] | remaining binding at 1 µM [6] [%] | remaining binding at 1 µM [7] [%]
Cc1ccc(C(=O)Nc2ccc(CN3CCN(C)CC3)c(C(F)(F)F)c2)cc1C#Cc1cnc2c(Nc3cnn(C)c3)cccn12 [Example 1, 4-methyl-3-((8-((1-methyl-1H-pyrazol-4-yl)amino)imidazo[1,2-a]pyridin-3-yl)ethynyl)-N-(4-((4-methylpiperazin-1-yl)methyl)-3-(trifluoromethyl)phenyl)benzamide] | 93 | 0 | 73 | 94 | 0 | 0 | 2
Cc1cn(-c2cc(NC(=O)c3ccc(C)c(C#Cc4cnc5c(Nc6cnn(C)c6)cccn45)c3)cc(C(F)(F)F)c2)cn1 [Example 12, 4-methyl-N-(3-(4-methyl-1H-imidazol-1-yl)-5-(trifluoromethyl)phenyl)-3-((8-((1-methyl-1H-pyrazol-4-yl)amino)imidazo[1,2-a]pyridin-3-yl)ethynyl)benzamide] | 100 | 32 | 80 | 84 | 5 | 7 | 48
Cc1ccc(NC(=O)C2(C(=O)Nc3ccc(F)cc3)CC2)cc1C#Cc1cnc2c(Nc3cnn(C(C)C)c3)cccn12 [Example 78] | 96 | 100 | 100 | 98 | 19 | 1 | 93
